From patent publication US12503452B2 (Curza Global, LLC, priority 2019, dated 2025)

Key:
[1] = tested on: E. coli S30 extract (bacterial protein synthesis); assay: E. coli S30 extract coupled transcription-translation luciferase assay (inhibition of bacterial protein synthesis); assay type: biochemical; details: class by IC50 or % inhibition @ 1 μM, read-out: S30 IC50 (μM/% inhib.)
How it was run: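 Luminescent read-out of luciferase made from pBESTluc DNA by E. coli S30 extract after 1 h at 37 °C with compound in an 8-point 2-fold series. Background came from no-DNA reactions. Percent inhibition was calculated against water-only controls.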

[2] = biological target: Rabbit Reticulocyte Lysate (eukaryotic protein synthesis); assay: Rabbit reticulocyte lysate luciferase assay (inhibition of eukaryotic protein synthesis); assay type: biochemical; details: class by IC50 or % inhibition @ 1 μM, read-out: Rabbit reticulocyte IC50 (μM/% inhib.)
How it was run: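 Compounds were tested in 8-point 2-fold dilution series for blocking luciferase synthesis in nuclease-treated rabbit reticulocyte lysate (30° C., 90 minutes). Luminescence read-out, corrected by no-RNA background, was expressed as % inhibition against water-only reactions.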

A. baumannii (Ab) = assay: Broth microdilution minimum inhibitory concentration (MIC); assay type: cell-based; details: Acinetobacter baumannii; A. baumannii; growth medium with sodium bicarbonate; read-out: Ab + bicarb MIC
How it was run: (§1)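 MICs were run in triplicate per CLSI microdilution (modified, 8 dilution steps), inoculating 5×10^4 CFU/well prepared from colonies grown at 35±2° C to 0.5 McFarland. Media: CAMHB alone, with 6.25 or 25 mM final sodium bicarbonate, or with 0–50% heat-inactivated human serum.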

S. aureus (Sa) = assay: as above; assay type: cell-based; details: Staphylococcus aureus, S. aureus; growth medium with sodium bicarbonate; read-out: Sa + bicarb MIC
How it was run: as §1

P. aeruginosa (Pa) = assay: as above; assay type: cell-based; details: Pseudomonas aeruginosa, P. aeruginosa; growth medium with sodium bicarbonate; read-out: Pa MIC + bicarb
How it was run: as §1

E. coli (Ec) = assay: as above; assay type: cell-based; details: Escherichia coli, E. coli; growth medium with sodium bicarbonate; read-out: E. coli + bicarb MIC
How it was run: as §1

E. faecalis (Ef) = assay: as above; assay type: cell-based; details: Enterococcus faecalis, E. faecalis; growth medium with sodium bicarbonate; read-out: Ef + bicarb MIC
How it was run: as §1

Row | Structure (SMILES) | IC50 [1] [µM] | IC50 [2] [µM] | MIC (A. baumannii (Ab)) [µg/mL] | MIC (S. aureus (Sa)) [µg/mL] | MIC (P. aeruginosa (Pa)) [µg/mL] | MIC (E. coli (Ec)) [µg/mL] | MIC (E. faecalis (Ef)) [µg/mL]
1 | CC(C)(N)C(=O)N1CCN(C(=O)Nc2ccn(-c3ccc(CN4CC[C@@H](N)[C@@H](F)C4)cc3)c(=O)n2)CC1 [Compound 209] | > 1 | > 1 | > 32 | > 32 | > 32 | < 8 | > 32
2 | C[C@@H]1CN(Cc2ccc(-n3ccc(NC(=O)N4CCN(C(=O)C(C)(C)N)CC4)nc3=O)cc2)CC[C@H]1N [Compound 210] | < 0.5 | > 1 | > 32 | < 8 | > 32 | < 8 | < 8
3 | C[C@H]1CN(Cc2ccc(-n3ccc(NC(=O)N4CCN(C(=O)C(C)(C)N)CC4)nc3=O)cc2)CC[C@H]1N [Compound 211] | 0.5 to 1 | > 1 | > 32 | < 8 | > 32 | < 8 | 8 to 32
4 | CC[C@H]1CN(Cc2ccc(-n3ccc(NC(=O)N4CCN(C(=O)C(C)(C)N)CC4)nc3=O)cc2)CC[C@H]1N [Compound 212] | 0.5 to 1 | > 1 | > 32 | < 8 | > 32 | < 8 | < 8
5 | C[C@@H](N)C1CCN(Cc2ccc(-n3ccc(NC(=O)N4CCN(C(=O)C(C)(C)N)CC4)nc3=O)cc2)CC1 [Compound 219] | 0.5 to 1 | > 1 | > 32 | < 8 | > 32 | < 8 | 8 to 32
6 | C[C@H](N)C1CCN(Cc2ccc(-n3ccc(NC(=O)N4CCN(C(=O)C(C)(C)N)CC4)nc3=O)cc2)CC1 [Compound 220] | < 0.5 | > 1 | 8 to 32 | < 8 | > 32 | < 8 | 8 to 32
7 | CC(C)(N)C(=O)N1CCN(C(=O)Nc2ccn(-c3ccc(CN4CC[C@@H](N)[C@H](CO)C4)cc3)c(=O)n2)CC1 [Compound 227] | > 1 | > 1 | > 32 | > 32 | > 32 | 8 to 32 | > 32
8 | CC(C)(N)CC1(F)CCN(C(=O)Nc2ccn(-c3ccc(CN4CCC(N)CC4)cc3)c(=O)n2)CC1 [Compound 233] | > 1 | > 1 | > 32 | < 8 | > 32 | < 8 | > 32
9 | CC(C)(N)C(=O)N1CCN(C(=O)Nc2ccn(-c3ccc(CN4CC[C@H](CN)C4)cc3)c(=O)n2)CC1 [Compound 242] | < 0.5 | > 1 | > 32 | < 8 | > 32 | < 8 | 8 to 32
10 | CC(C)(N)C(=O)N1CCN(C(=O)Nc2ccn(-c3ccc(CN4CC[C@@H](CN)C4)cc3)c(=O)n2)CC1 [Compound 243] | < 0.5 | > 1 | > 32 | < 8 | > 32 | < 8 | 8 to 32
11 | CC(C)(N)C(=O)N1CCN(C(=O)Nc2ccn(-c3ccc(CN4CCC(CN)CC4)cc3)c(=O)n2)CC1 [Compound 245] | < 0.5 | > 1 | > 32 | < 8 | > 32 | < 8 | < 8
12 | CC(N)C1CCN(Cc2ccc(-n3ccc(NC(=O)N4CCN(C(=O)C(C)(C)N)CC4)nc3=O)cc2)CC1 (stereo not shown) [Compound 247] | < 0.5 | > 1 | > 32 | < 8 | > 32 | < 8 | < 8
13 | CC1(CN)CCN(Cc2ccc(-n3ccc(NC(=O)N4CCN(C(=O)C(C)(C)N)CC4)nc3=O)cc2)CC1 [Compound 249] | < 0.5 | > 1 | > 32 | < 8 | > 32 | < 8 | 8 to 32
14 | CC1CN(Cc2ccc(-n3ccc(NC(=O)N4CCN(C(=O)C(C)(C)N)CC4)nc3=O)cc2)CCC1N (stereo not shown) [Compound 251] | < 0.5 | > 1 | > 32 | < 8 | > 32 | < 8 | < 8
15 | CC(C)(N)C(=O)N1CCN(C(=O)Nc2ccn(-c3ccc(CN4CCC(N)C(C)(C)C4)cc3)c(=O)n2)CC1 (stereo not shown) [Compound 254] | 0.5 to 1 | > 1 | < 8 | < 8 | > 32 | < 8 | < 8
16 | CC(C)(N)C(=O)N1CCN(C(=O)Nc2ccn(-c3ccc(CN4CC[C@@H](N)[C@H](O)C4)cc3)c(=O)n2)CC1 [Compound 268] | > 1 | > 1 | > 32 | 8 to 32 | > 32 | 8 to 32 | > 32
17 | CC(C)(N)C(=O)N1CCN(C(=O)Nc2ccn(-c3ccc(CC(=O)N4CCC(N)CC4)cc3)c(=O)n2)CC1 [Compound 269] | > 1 | > 1 | > 32 | > 32 | > 32 | 8 to 32 | > 32
18 | Cc1cc(-n2ccc(NC(=O)N3CCN(C(=O)C(C)(C)N)CC3)nc2=O)ccc1CN(CC1CC1)C1CCC(N)CC1 (stereo not shown) [Compound 270] | < 0.5 | > 1 | < 8 | < 8 | 8 to 32 | < 8 | < 8
19 | CC(C)(N)C(=O)N1CCN(C(=O)Nc2ccn(-c3ccc(CNC4CCC(N)CC4)c(Cl)c3)c(=O)n2)CC1 (stereo not shown) [Compound 271] | < 0.5 | > 1 | > 32 | < 8 | > 32 | < 8 | < 8
20 | CN(Cc1ccc(-n2ccc(NC(=O)N3CCN(C(=O)C(C)(C)N)CC3)nc2=O)cc1Cl)C1CCC(N)CC1 (stereo not shown) [Compound 272] | < 0.5 | > 1 | < 8 | < 8 | 8 to 32 | < 8 | < 8
21 | CCN(Cc1ccc(-n2ccc(NC(=O)N3CCN(C(=O)C(C)(C)N)CC3)nc2=O)cc1Cl)C1CCC(N)CC1 (stereo not shown) [Compound 273] | < 0.5 | > 1 | < 8 | < 8 | 8 to 32 | < 8 | < 8
22 | CCN(Cc1ccc(-n2ccc(NC(=O)N3CCN(C(=O)C(C)(C)N)[C@H](C)C3)nc2=O)cc1)C1CCC(N)CC1 (stereo partly shown) [Compound 274] | < 0.5 | > 1 | < 8 | < 8 | 8 to 32 | < 8 | < 8
23 | CCN(Cc1ccc(-n2ccc(NC(=O)N3CCN(C(=O)C(C)(C)N)C[C@H]3C)nc2=O)cc1)C1CCC(N)CC1 (stereo partly shown) [Compound 275] | < 0.5 | > 1 | < 8 | < 8 | 8 to 32 | < 8 | < 8
24 | CCN(Cc1ccc(-n2ccc(NC(=O)N3CCN(C(=O)C(C)(C)N)CC3)nc2=O)cc1C(F)(F)F)C1CCC(N)CC1 (stereo not shown) [Compound 276] | 0.5 to 1 | > 1 | > 32 | < 8 | > 32 | < 8 | < 8
25 | C[C@](N)(CO)C(=O)N1CCN(C(=O)Nc2ccn(-c3ccc(CN(CC4CC4)C4CCC(N)CC4)cc3)c(=O)n2)CC1 (stereo partly shown) [Compound 277] | < 0.5 | > 1 | > 32 | < 8 | > 32 | < 8 | < 8
26 | CN(Cc1ccc(-n2ccc(NC(=O)N3CCN(C(=O)C(C)(C)N)CC3)nc2=O)cc1F)C1CCC(N)CC1 (stereo not shown) [Compound 278] | < 0.5 | > 1 | 8 to 32 | < 8 | 8 to 32 | < 8 | < 8
27 | CC(Cc1ccc(-n2ccc(NC(=O)N3CCN(C(=O)C(C)(C)N)CC3)nc2=O)cc1)N(C)C[C@H]1CCC[C@H](N)C1 (stereo partly shown) [Compound 279] | > 1 | > 1 | > 32 | < 8 | > 32 | < 8 | 8 to 32
28 | CCN(C[C@H]1CCC[C@H](N)C1)C(C)Cc1ccc(-n2ccc(NC(=O)N3CCN(C(=O)C(C)(C)N)CC3)nc2=O)cc1 (stereo partly shown) [Compound 280] | 0.5 to 1 | > 1 | > 32 | < 8 | > 32 | < 8 | < 8
